Where a name gives a salt, the structure may show the parent alone. Read-outs that look alike come from different tables or passages of the source.

How the values of the data set were obtained: Amorphous state of Ib can be prepared by dissolving Form VIII in 82% t-butanol/18% water at a drug concentration of ˜6 mg/mL. This solution was lyophilized overnight (˜18 hours) to form the amorphous material.

For `CCC(=O)NS(=O)(=O)c1ccc(NC(=O)Cc2ccc(Br)c(Oc3cc(Cl)cc(C#N)c3)c2F)c(Cl)c1` [amorphous material, 2-[4-Bromo-3-(3-chloro-5-cyano-phenoxy)-2-fluoro-phenyl]-N-(2-chloro-4-propionylsulfamoyl-phenyl)-acetamide, sodium salt], the “stability of amorphous material on storage” value was “stable at 25C/60 RH for at least one week” (25C/60 RH, at least one week) and “not at 40C/75 RH” (40C/75 RH).

For the origin of these results see patent publication US8063103B2, “Polymorphs of acyl sulfonamides” (Roche Palo Alto LLC, priority 2008, dated 2011).
